Earlier results as cited in US6346524B1, “Cancer treatment with temozolomide” (Schering Corporation, priority 1999, dated 2002).

Experiments:
advanced melanoma [1] = conditions: patients having advanced melanoma; Newlands et al. Br. J. Cancer 65 (2) 287-291 (1992)
advanced melanoma [2] = conditions: patients with advanced melanoma; Journal of Clinical Oncology, Vol 13, No. 4, 1995, pp 910-913

Cn1nnc2c(C(N)=O)ncn2c1=O [Temozolomide, 3,4-dihydro-3-methyl-4-oxoimidazo-[5,1-d] 1,2,3,4-tetrazin-8-carboximide]
clinical responses achieved, % of patients (advanced melanoma [1]): 17%
clinical response achieved, % of patients (advanced melanoma [2]): 21%
